Laboratory results reported in patent publication US6365591B1, “Isoxazolecarboxamide derivatives” (Recordati, S.A., Chemical and Pharmacueticals Company, priority 1999, dated 2002).
Where two headings read alike, the source gives them in different places.

What was measured:
[1] = tested on: prostatic urethral pressure (hypogastric-nerve stimulation); conditions: anaesthetised dogs, i.v.; data from Leonardi et al. 1997; cited from earlier work
[2] = tested on: prostatic urethral pressure (noradrenaline-induced); conditions: cited from earlier work
[3] = target: T1, α1L adrenoceptor (Oryctolagus cuniculus, UniProt O02824); experiment: Functional antagonism of noradrenaline-induced contractions of rabbit aorta pretreated with chloroethylclonidine; type: biochemical
T1 sequence (O02824 1-466): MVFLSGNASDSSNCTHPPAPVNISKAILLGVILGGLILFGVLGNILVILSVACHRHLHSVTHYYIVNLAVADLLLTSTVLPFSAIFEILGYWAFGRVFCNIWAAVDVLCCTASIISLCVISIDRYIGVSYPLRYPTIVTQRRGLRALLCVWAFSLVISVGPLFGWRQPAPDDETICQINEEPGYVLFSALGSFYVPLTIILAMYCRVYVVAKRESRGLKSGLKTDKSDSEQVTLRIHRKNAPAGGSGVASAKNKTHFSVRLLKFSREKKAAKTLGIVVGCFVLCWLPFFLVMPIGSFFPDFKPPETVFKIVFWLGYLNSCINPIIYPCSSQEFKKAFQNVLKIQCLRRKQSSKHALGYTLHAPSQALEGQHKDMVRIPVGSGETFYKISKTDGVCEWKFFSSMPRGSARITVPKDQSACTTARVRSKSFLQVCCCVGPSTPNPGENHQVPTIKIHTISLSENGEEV
Description: Adult male New Zealand rabbits were sacrificed by cervical dislocation. The aorta was removed, placed in Krebs-Henseleit buffer and dissected free of adhering tissue. […] Desmethylimipramine (0.1 μM) and corticosterone (1 μM) to block neuronal and extraneuronal uptake of NA, (±)-propranol (1 μM) to block β adrenoceptors and yohimbine (0.1 μM) to block α2 adrenoceptors were added to the buffer.
Each antagonist concentration was tested using 2-3 aortic rings from different rabbits.
The logarithm of these dose ratio −1 was plotted against the logarithm of the compound concentrations (Schild plot) to evaluate the affinity constant Kb.

[4] = tested on: diastolic blood pressure; conditions: cited from earlier work; for DBP ED25: dose inducing a 25% decrease in diastolic blood pressure: anaesthetised dogs, i.v., data from Leonardi et al. 1997
[5] = tested on: recombinant α1a-adrenoceptor; conditions: literature statement (Leonardi et al. 1997); cited from earlier work
[6] = dog model, literature (Leonardi et al. 1997)

COc1ccccc1N1CCN(CCCNC(=O)c2cccc3c(=O)c(C)c(-c4ccccc4)oc23)CC1 [Compound A]
UP ID50 HYP: dose inhibiting by 50% the urethral contractions induced by hypogastric-nerve stimulation [1]: 0.0067 mg/kg
UP ID50 NA: dose inhibiting by 50% the urethral contractions induced by noradrenaline ([2]; anaesthetised dogs, i.v., data from Leonardi et al. 1997): 0.0024 mg/kg
inhibition of contractility of the prostatic urethra [2, 6]: selectively inhibit contractility of the prostatic urethra
Functional affinity for the α1L adrenoceptor subtype, pKb [3]: 8.91
DBP ED25: dose inducing a 25% decrease in diastolic blood pressure ([4]; first of two DBP values (the one that gives R1, NA)): 0.243 mg/kg
DBP ED25: dose inducing a 25% decrease in diastolic blood pressure ([4]; second of two DBP values (the one that gives R2, HYP)): 0.177 mg/kg
effects on blood pressure [4, 6]: without substantial effects on blood pressure
affinity for the α1A adrenoceptor [5]: good affinity
